Results: patent publication US20260262643A1, “HERBICIDAL BENZOXAZINES” (FMC CORPORATION, priority 2022, published 2026)

How the values were obtained:
[1] = test system: barnyardgrass; experiment: Test C preemergence; format: in vivo, Echinochloa crusgalli; conditions: for Plant response rating, Barnyardgrass: Preemergence; for Barnyardgrass plant response rating: preemergence
In short: (§1)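 Pre: seeds in loam/sand, directed soil spray. Post: 1–2 leaf plants, 2–10 cm. Cmpd in non-phytotoxic solvent + surfactant. Greenhouse 10 d; visual rating vs untreated, 0 = none, 100 = complete control.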

[2] = test system: blackgrass; experiment: Test C preemergence; format: in vivo, Alopecurus myosuroides; conditions: for Plant response rating, Blackgrass: Preemergence; for Blackgrass plant response rating: preemergence
In short: as §1

[3] = test system: corn; experiment: Test C preemergence; format: in vivo, Zea mays; conditions: for Plant response rating, Corn: Preemergence; for Corn plant response rating: preemergence
In short: as §1

[4] = test system: green foxtail; experiment: Test C preemergence; format: in vivo, Setaria viridis; conditions: for Plant response rating, Foxtail, Green: Preemergence; for Foxtail, Green plant response rating: preemergence
In short: as §1

[5] = test system: kochia; experiment: Test C preemergence; format: in vivo, Bassia scoparia; conditions: for Plant response rating, Kochia: Preemergence; for Kochia plant response rating: preemergence
In short: as §1

[6] = test system: oat, wild; experiment: Test C preemergence; format: in vivo, Avena fatua; conditions: for Plant response rating, Oat, Wild: Preemergence; for Oat, Wild plant response rating: preemergence
In short: as §1

[7] = test system: pigweed, palmer; experiment: Test C preemergence; format: in vivo, Amaranthus palmeri; conditions: for Plant response rating, Pigweed, Palmer: Preemergence; for Pigweed, Palmer plant response rating: preemergence
In short: as §1

[8] = test system: ragweed; experiment: Test C preemergence; format: in vivo, Ambrosia artemisiifolia; conditions: for Plant response rating, Ragweed: Preemergence; for Ragweed plant response rating: preemergence
In short: as §1

[9] = test system: ryegrass, Italian; experiment: Test C preemergence; format: in vivo, Lolium multiflorum; conditions: for Plant response rating, Ryegrass, Italian: Preemergence; for Ryegrass, Italian plant response rating: preemergence
In short: as §1

[10] = test system: soybean; experiment: Test C preemergence; format: in vivo, Glycine max; conditions: for Plant response rating, Soybean: Preemergence; for Soybean plant response rating: preemergence
In short: as §1

[11] = test system: wheat; experiment: Test C preemergence; format: in vivo, Triticum aestivum; conditions: for Plant response rating, Wheat: Preemergence; for Wheat plant response rating: preemergence
In short: as §1

[12] = test system: barnyardgrass; experiment: Test C postemergence; format: in vivo, Echinochloa crusgalli; conditions: 10 days
In short: as §1

[13] = test system: blackgrass; experiment: Test C postemergence; format: in vivo, Alopecurus myosuroides; conditions: 10 days
In short: as §1

[14] = test system: corn; experiment: Test C postemergence; format: in vivo, Zea mays; conditions: 10 days
In short: as §1

[15] = test system: green foxtail; experiment: Test C postemergence; format: in vivo, Setaria viridis; conditions: 10 days
In short: as §1

[16] = test system: kochia; experiment: Test C postemergence; format: in vivo, Bassia scoparia; conditions: 10 days
In short: as §1

[17] = test system: oat, wild; experiment: Test C postemergence; format: in vivo, Avena fatua; conditions: 10 days
In short: as §1

[18] = test system: pigweed, palmer; experiment: Test C postemergence; format: in vivo, Amaranthus palmeri; conditions: 10 days
In short: as §1

[19] = test system: ragweed; experiment: Test C postemergence; format: in vivo, Ambrosia artemisiifolia; conditions: 10 days
In short: as §1

[20] = test system: ryegrass, Italian; experiment: Test C postemergence; format: in vivo, Lolium multiflorum; conditions: 10 days
In short: as §1

[21] = test system: soybean; experiment: Test C postemergence; format: in vivo, Glycine max; conditions: 10 days
In short: as §1

[22] = test system: wheat; experiment: Test C postemergence; format: in vivo, Triticum aestivum; conditions: 10 days
In short: as §1

[23] = test system: horseweed; experiment: Test C postemergence; format: in vivo, Erigeron canadensis; conditions: 10 days
In short: as §1

[24] = test system: barnyardgrass; experiment: Test D flooded paddy test; format: in vivo, Echinochloa crus-galli; conditions: 250 g ai/ha, applied to paddy water, visual rating after 13 to 14 days, scale 0 to 100 (0 no effect, 100 complete control)
In short: (§2)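 Visual ratings from 0, meaning no effect, to 100, meaning complete control, were assigned against untreated controls 13 to 14 days after compounds were added to the floodwater of pots kept 3 cm deep, with plants at the 2-leaf stage.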

[25] = test system: ducksalad; experiment: Test D flooded paddy test; format: in vivo, Heteranthera limosa; conditions: 250 g ai/ha, applied to paddy water, visual rating after 13 to 14 days, scale 0 to 100 (0 no effect, 100 complete control)
In short: as §2

[26] = test system: rice; experiment: Test D flooded paddy test; format: in vivo, Oryza sativa; conditions: 250 g ai/ha, applied to paddy water, visual rating after 13 to 14 days, scale 0 to 100 (0 no effect, 100 complete control)
In short: as §2

[27] = test system: sedge, umbrella; experiment: Test D flooded paddy test; format: in vivo, Cyperus difformis; conditions: 250 g ai/ha, applied to paddy water, visual rating after 13 to 14 days, scale 0 to 100 (0 no effect, 100 complete control)
In short: as §2

[28] = 500 g ai/ha, visual rating after 10 days, 0 to 100 scale (0 no effect, 100 complete control)
[29] = Test C, 125 g ai/ha, 0 to 100 scale (0 no effect, 100 complete control)
[30] = 125 g ai/ha, postemergence, 0 to 100 scale, 0 no effect, 100 complete control
[31] = Postemergence, 500 g ai/ha, visual 0 to 100 scale (0 no effect, 100 complete control)
[32] = 500 g ai/ha, 0 to 100 scale (0 no effect, 100 complete control)
[33] = 125 g ai/ha, 0 to 100 scale, 0 no effect, 100 complete control
[34] = 500 g ai/ha, postemergence, 0 to 100 scale (0 no effect, 100 complete control)
[35] = Postemergence, 125 g ai/ha, 0 to 100 scale (0 no effect, 100 complete control)

## COc1cc(C(=O)N2C[C@H](C)Oc3c(Cl)cccc32)cc(-n2cnc(C3CC3)n2)c1 [Compound 216]
[1]; [28]
  Plant response rating, Barnyardgrass: 90
[1]; [29]
  Barnyardgrass plant response rating: 40
[2]; [28]
  Plant response rating, Blackgrass: 90
[2]; [29]
  Blackgrass plant response rating: 20
[3]; [28]
  Plant response rating, Corn: 30
[3]; [29]
  Corn plant response rating: 0
[4]; [28]
  Plant response rating, Foxtail, Green: 100
[4]; [29]
  Foxtail, Green plant response rating: 100
[5]; [28]
  Plant response rating, Kochia: 100
[5]; [29]
  Kochia plant response rating: 70
[6]; [28]
  Plant response rating, Oat, Wild: 40
[6]; [29]
  Oat, Wild plant response rating: 0
[7]; [28]
  Plant response rating, Pigweed, Palmer: 100
[7]; [29]
  Pigweed, Palmer plant response rating: 100
[8]; [28]
  Plant response rating, Ragweed: 40
[8]; [29]
  Ragweed plant response rating: 0
[9]; [28]
  Plant response rating, Ryegrass, Italian: 90
[9]; [29]
  Ryegrass, Italian plant response rating: 80
[10]; [28]
  Plant response rating, Soybean: 100
[10]; [29]
  Soybean plant response rating: 50
[11]; [28]
  Plant response rating, Wheat: 20
[11]; [29]
  Wheat plant response rating: 0
[12]; [30]
  Plant response rating, Barnyardgrass: 10
[12]; [31]
  Plant response rating, Barnyardgrass: 60
[13]; [30]
  Plant response rating, Blackgrass: 30
[13]; [31]
  Plant response rating, Blackgrass: 100
[14]; [30]
  Plant response rating, Corn: 10
[14]; [31]
  Plant response rating, Corn: 20
[15]; [30]
  Plant response rating, Foxtail, Green: 70
[15]; [31]
  Plant response rating, Foxtail, Green: 90
[16]; [30]
  Plant response rating, Kochia: 80
[16]; [31]
  Plant response rating, Kochia: 90
[17]; [30]
  Plant response rating, Oat, Wild: 20
[17]; [31]
  Plant response rating, Oat, Wild: 20
[18]; [30]
  Plant response rating, Pigweed, Palmer: 80
[18]; [31]
  Plant response rating, Pigweed, Palmer: 90
[19]; [30]
  Plant response rating, Ragweed: 60
[19]; [31]
  Plant response rating, Ragweed: 80
[20]; [30]
  Plant response rating, Ryegrass, Italian: 20
[20]; [31]
  Plant response rating, Ryegrass, Italian: 60
[21]; [30]
  Plant response rating, Soybean: 100
[21]; [31]
  Plant response rating, Soybean: 100
[22]; [30]
  Plant response rating, Wheat: 20
[22]; [31]
  Plant response rating, Wheat: 30
[23]; [30]
  Plant response rating, Horseweed: 0
[23]; [31]
  Plant response rating, Horseweed: 50
[24]
  Plant response rating, Barnyardgrass (Flood): 40
[25]
  Plant response rating, Ducksalad (Flood): 100
[26]
  Plant response rating, Rice (Flood): 10
[27]
  Plant response rating, Sedge, Umbrella (Flood): 95

## Cc1ccc(-n2cnc(C3(C#N)CCC3)n2)cc1C(=O)N1C[C@H](C)Oc2c(Cl)cccc21 [Compound 402]
[1]; [32]
  Barnyardgrass plant response rating: 100
[1]; [33]
  Plant response rating, Barnyardgrass: 60
[2]; [32]
  Blackgrass plant response rating: 30
[2]; [33]
  Plant response rating, Blackgrass: 30
[3]; [32]
  Corn plant response rating: 20
[3]; [33]
  Plant response rating, Corn: 0
[4]; [32]
  Foxtail, Green plant response rating: 100
[4]; [33]
  Plant response rating, Foxtail, Green: 100
[5]; [32]
  Kochia plant response rating: 90
[5]; [33]
  Plant response rating, Kochia: 90
[6]; [32]
  Oat, Wild plant response rating: 40
[6]; [33]
  Plant response rating, Oat, Wild: 20
[7]; [32]
  Pigweed, Palmer plant response rating: 100
[7]; [33]
  Plant response rating, Pigweed, Palmer: 100
[8]; [32]
  Ragweed plant response rating: 50
[8]; [33]
  Plant response rating, Ragweed: 0
[9]; [32]
  Ryegrass, Italian plant response rating: 80
[9]; [33]
  Plant response rating, Ryegrass, Italian: 70
[10]; [32]
  Soybean plant response rating: 40
[10]; [33]
  Plant response rating, Soybean: 20
[11]; [32]
  Wheat plant response rating: 30
[11]; [33]
  Plant response rating, Wheat: 0
[12]; [34]
  Plant response rating, Barnyardgrass: 50
[12]; [35]
  Plant response rating, Barnyardgrass: 20
[13]; [34]
  Plant response rating, Blackgrass: 60
[13]; [35]
  Plant response rating, Blackgrass: 20
[14]; [34]
  Plant response rating, Corn: 60
[14]; [35]
  Plant response rating, Corn: 10
[15]; [34]
  Plant response rating, Foxtail, Green: 90
[15]; [35]
  Plant response rating, Foxtail, Green: 70
[16]; [34]
  Plant response rating, Kochia: 90
[16]; [35]
  Plant response rating, Kochia: 90
[17]; [34]
  Plant response rating, Oat, Wild: 20
[17]; [35]
  Plant response rating, Oat, Wild: 0
[18]; [34]
  Plant response rating, Pigweed, Palmer: 100
[18]; [35]
  Plant response rating, Pigweed, Palmer: 90
[19]; [35]
  Plant response rating, Ragweed: 90
[20]; [35]
  Plant response rating, Ryegrass, Italian: 30
[21]; [35]
  Plant response rating, Soybean: 40
[22]; [35]
  Plant response rating, Wheat: 20
[23]; [34]
  Plant response rating, Horseweed: 70
[23]; [35]
  Plant response rating, Horseweed: 50
[24]
  Plant response rating, Barnyardgrass (Flood): 25
[25]
  Plant response rating, Ducksalad (Flood): 45
[26]
  Plant response rating, Rice (Flood): 0
[27]
  Plant response rating, Sedge, Umbrella (Flood): 25
